Assay results from US9149038B2, “4-amino-6-(heterocyclic)picolinates and 6-amino-2-(heterocyclic)pyrimidine-4-carboxylates and their use as herbicides” (Dow AgroSciences LLC, priority 2013, dated 2015).
Like-named read-outs stand apart in the source and are kept apart here.

What was measured:
[1] = tested on: Key Grass and Sedge Weeds as well as Grass Crops; assay: Post-Emergent Test II: postemergent herbicidal activity, visual rating after 14 d (Table 8); format: in vivo; conditions: post-emergence, 336 h; for pest or weed control at 35 g/ha: 35 g ai/ha; for pest or weed control at 70 g/ha: 70 g ai/ha; for pest or weed control at 140 g/ha: 140 g ai/ha
Procedure, shortened: (§1)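 Track-sprayed young seedlings (first/second true leaf) at 187 L/ha across a 2-fold rate series from the high rate down to 1/16×. Kept in greenhouse at 23-29° C day, subirrigated. Injury rated by eye after 14 d, 0 = no injury, 100 = complete kill.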

[2] = tested on: Key Broadleaf Weed and Crop Species; assay: Post-Emergent Test II: postemergent herbicidal activity, visual rating after 14 d (Table 7); format: in vivo; conditions: post-emergence, 336 h; for pest or weed control at 35 g/ha: 35 g ai/ha; for pest or weed control at 70 g/ha: 70 g ai/ha; for pest or weed control at 140 g/ha: 140 g ai/ha
Procedure, shortened: as §1

[3] = barnyardgrass (Echinochloa crus-galli), read-out: Visual Growth Reduction (%) 14 Days After Application ECHCG
[4] = giant foxtail (Setaria faberi), read-out: Visual Growth Reduction (%) 14 Days After Application SETFA
[5] = maize, corn (Zea mays), read-out: Visual Growth Reduction (%) 14 Days After Application ZEAMX
[6] = rice (Oryza sativa), read-out: Visual Growth Reduction (%) 14 Days After Application ORYSA
[7] = wheat, spring (Triticum aestivum), read-out: Visual Growth Reduction (%) 14 Days After Application TRZAS
[8] = yellow nutsedge (Cyperus esculentus), read-out: Visual Growth Reduction (%) 14 Days After Application CYPES
[9] = lambsquarters (Chenopodium album), read-out: Visual Growth Reduction (%) 14 Days After Application CHEAL
[10] = oilseed rape, canola (Brassica napus), read-out: Visual Growth Reduction (%) 14 Days After Application BRSNN
[11] = redroot pigweed (Amaranthus retroflexus), read-out: Visual Growth Reduction (%) 14 Days After Application AMARE
[12] = sunflower (Helianthus annuus), read-out: Visual Growth Reduction (%) 14 Days After Application HELAN
[13] = velvetleaf (Abutilon theophrasti), read-out: Visual Growth Reduction (%) 14 Days After Application ABUTH
[14] = wild poinsettia (Euphorbia heterophylla), read-out: Visual Growth Reduction (%) 14 Days After Application EPHHL

SMILES: Nc1c(F)c(-c2cc(F)c3c(c2)OC(F)(F)O3)nc(C(=O)O)c1Cl [Compound 18]
- pest or weed control at 35 g/ha [1, 3]: 45 to 59%
- pest or weed control at 70 g/ha [1, 3]: 60 to 74%
- pest or weed control at 140 g/ha [1, 3]: 60 to 74%
- pest or weed control at 35 g/ha [1, 4]: 45 to 59%
- pest or weed control at 70 g/ha [1, 4]: 45 to 59%
- pest or weed control at 140 g/ha [1, 4]: 60 to 74%
- pest or weed control at 35 g/ha [1, 5]: 0 to 29%
- pest or weed control at 70 g/ha [1, 5]: 30 to 44%
- pest or weed control at 140 g/ha [1, 5]: 60 to 74%
- pest or weed control at 35 g/ha [1, 6]: 0 to 29%
- pest or weed control at 70 g/ha [1, 6]: 0 to 29%
- pest or weed control at 140 g/ha [1, 6]: 0 to 29%
- pest or weed control at 35 g/ha [1, 7]: 0 to 29%
- pest or weed control at 70 g/ha [1, 7]: 45 to 59%
- pest or weed control at 140 g/ha [1, 7]: 45 to 59%
- pest or weed control at 35 g/ha [1, 8]: 0 to 29%
- pest or weed control at 70 g/ha [1, 8]: 0 to 29%
- pest or weed control at 140 g/ha [1, 8]: 0 to 29%
- pest or weed control at 35 g/ha [2, 9]: 0 to 29%
- pest or weed control at 70 g/ha [2, 9]: 0 to 29%
- pest or weed control at 140 g/ha [2, 9]: 0 to 29%
- pest or weed control at 35 g/ha [2, 10]: 0 to 29%
- pest or weed control at 70 g/ha [2, 10]: 0 to 29%
- pest or weed control at 140 g/ha [2, 10]: 0 to 29%
- pest or weed control at 35 g/ha [2, 11]: 0 to 29%
- pest or weed control at 70 g/ha [2, 11]: 0 to 29%
- pest or weed control at 140 g/ha [2, 11]: 0 to 29%
- pest or weed control at 35 g/ha [2, 12]: 0 to 29%
- pest or weed control at 70 g/ha [2, 12]: 0 to 29%
- pest or weed control at 140 g/ha [2, 12]: 45 to 59%
- pest or weed control at 35 g/ha [2, 13]: 0 to 29%
- pest or weed control at 70 g/ha [2, 13]: 0 to 29%
- pest or weed control at 140 g/ha [2, 13]: 0 to 29%
- pest or weed control at 35 g/ha [2, 14]: 0 to 29%
- pest or weed control at 70 g/ha [2, 14]: 0 to 29%
- pest or weed control at 140 g/ha [2, 14]: 0 to 29%

SMILES: COc1c(C(=O)O)nc(-c2cc3c(cc2F)OC(F)(F)O3)c(F)c1N [Compound 23]
- pest or weed control at 35 g/ha [1, 3]: 75 to 84%
- pest or weed control at 70 g/ha [1, 3]: 95 to 100%
- pest or weed control at 140 g/ha [1, 3]: 95 to 100%
- pest or weed control at 35 g/ha [1, 4]: 60 to 74%
- pest or weed control at 70 g/ha [1, 4]: 75 to 84%
- pest or weed control at 140 g/ha [1, 4]: 75 to 84%
- pest or weed control at 35 g/ha [1, 5]: 60 to 74%
- pest or weed control at 70 g/ha [1, 5]: 60 to 74%
- pest or weed control at 140 g/ha [1, 5]: 60 to 74%
- pest or weed control at 35 g/ha [1, 6]: 0 to 29%
- pest or weed control at 70 g/ha [1, 6]: 0 to 29%
- pest or weed control at 140 g/ha [1, 6]: 0 to 29%
- pest or weed control at 35 g/ha [1, 7]: 45 to 59%
- pest or weed control at 70 g/ha [1, 7]: 45 to 59%
- pest or weed control at 140 g/ha [1, 7]: 60 to 74%
- pest or weed control at 35 g/ha [1, 8]: 0 to 29%
- pest or weed control at 70 g/ha [1, 8]: 45 to 59%
- pest or weed control at 140 g/ha [1, 8]: 45 to 59%
- pest or weed control at 35 g/ha [2, 9]: 0 to 29%
- pest or weed control at 70 g/ha [2, 9]: 0 to 29%
- pest or weed control at 140 g/ha [2, 9]: 0 to 29%
- pest or weed control at 35 g/ha [2, 10]: 0 to 29%
- pest or weed control at 70 g/ha [2, 10]: 75 to 84%
- pest or weed control at 140 g/ha [2, 10]: 85 to 94%
- pest or weed control at 35 g/ha [2, 11]: 0 to 29%
- pest or weed control at 70 g/ha [2, 11]: 0 to 29%
- pest or weed control at 140 g/ha [2, 11]: 0 to 29%
- pest or weed control at 35 g/ha [2, 12]: 75 to 84%
- pest or weed control at 70 g/ha [2, 12]: 85 to 94%
- pest or weed control at 140 g/ha [2, 12]: 85 to 94%
- pest or weed control at 35 g/ha [2, 13]: 0 to 29%
- pest or weed control at 70 g/ha [2, 13]: 0 to 29%
- pest or weed control at 140 g/ha [2, 13]: 0 to 29%
- pest or weed control at 35 g/ha [2, 14]: 95 to 100%
- pest or weed control at 70 g/ha [2, 14]: 95 to 100%
- pest or weed control at 140 g/ha [2, 14]: 95 to 100%
